Assay results published in paper PMC8591201, “Anti-Tumor Activity of AZD4547 Against NTRK1 Fusion Positive Cancer Cells Through Inhibition of NTRKs” (Frontiers in Oncology, 2021).

Assays:
TRKA G667S = tested on: T1, TRKA G667S; experiment: cells; design: species or system Ba/F3; CellTiter-Glo anti-proliferation of Ba/F3 cells transformed with ETV6-NTRK fusions; settings: Mus musculus, BaF3, 72 h; read-out: AZD4547 GI50
T1 construct: ETV6 (1-336)-NTRK1 kinase domain (434-790) fusion expressed in Ba/F3
Protocol: (§1) To obtain the GI50 value of a substance, cell viability was measured using MTT (G4000, Promega, USA) for KM12(Luc) cell and Cell titer glo (G7572, Promega, USA) for other cell lines. For adherent cells, cells were seeded at 5,000 cells/well in a 96-well plate and treated with a substance one day after cell seeding. For suspension cells, 10,000 cells/well were seeded and the substance was treated after 4 h stabilization of cells. The substance was treated at 10 points of 1:3 serial dilution (0–100 µmol/L) for 72 h. For MTT assay, 15 µL dye solution was added to each well and incubated 4 h at 37°C. 100 µL of solubilization solution was added and followed 1 hr incubation. Absorbance at 570 nm of each well was recorded using EnVision microplate reader (Perkin Elmer). For Cell titer glo assay, Cell titer glo reagent was treated in each well and measured the luminescence by EnVision microplate reader (Perkin Elmer). Viable cells in each well were normalized by using 0.5% DMSO-treated wells (100%). The inhibitor dose−response curve was fitted and GI50 values were calculated using Prism 7.0 software (GraphPad). All assays were performed in duplicate and the standard deviation (SD) was determined from two independent experiments. To investigate the inhibitory activity of AZD4547 against clinically relevant TRK mutants which have resistance to the known TRK inhibitors ([8], [44]), we established Ba/F3 cell lines harboring the ETV6-NTRKs fusion genes (NTRK1, NTRK1G595R, NTRK1G667A, NTRK1G667C, NTRK1G667S and NTRK2) ( Supplementary Figure 2 ). The mutation status of each established cell line was confirmed by sequencing of its cDNA ( Supplementary Figure 2 ). The anti-proliferation activity of AZD4547 was then measured in each cell line ( Figure 2A and Table S2 ). […] However, AZD4547 has no inhibitory activity against Ba/F3 harboring clinically relevant TRKs mutants including TRKA G595R, TRKA G667S, TRKA G667C and TRKA G667A. We next evaluated if AZD4547 is capable of suppressing the phosphorylation of TRKA/B in Ba/F3 cell lines ( Figure 2B ). […] Also, phosphorylation of TRKA/B is almost completely abolished using 1 µM of AZD4547. […] (A) Summary of GI50s of AZD4547 against Ba/F3: TRKA mutants or TRKB. Cell viability after 72 h exposure to the indicated inhibitors, determined by using a cell titer glo assay in duplicate mode. Data was plotted as mean GI50 ± SD of two independent experiments. (B) AZD4547 inhibits phosphorylation of TRKA/B and PLC-gamma in Ba/F3 harboring TRKA and TRKB, respectively. […] Data are representative of three independent experiments.

TRKA G595R = tested on: T2, TRKA G595R; experiment: cells; design: species or system Ba/F3; CellTiter-Glo anti-proliferation of Ba/F3 cells transformed with ETV6-NTRK fusions; settings: Mus musculus, BaF3, 72 h; read-out: AZD4547 GI50
T2 construct: ETV6 (1-336)-NTRK1 kinase domain (434-790) fusion expressed in Ba/F3
Protocol: as §1

TRKA G667C = tested on: T3, TRKA G667C; experiment: cells; design: species or system Ba/F3; CellTiter-Glo anti-proliferation of Ba/F3 cells transformed with ETV6-NTRK fusions; settings: Mus musculus, BaF3, 72 h; read-out: AZD4547 GI50
T3 construct: ETV6 (1-336)-NTRK1 kinase domain (434-790) fusion expressed in Ba/F3
Protocol: as §1

TRKB [1] = tested on: T4, TRKB; experiment: cells; design: species or system Ba/F3; CellTiter-Glo anti-proliferation of Ba/F3 cells transformed with ETV6-NTRK fusions; settings: Mus musculus, BaF3, 72 h; read-out: AZD4547 GI50
T4 construct: ETV6 (1-336)-NTRK2 kinase domain (455-822) fusion expressed in Ba/F3
Protocol: as §1

TRKA = tested on: T5, TRKA; experiment: cells; design: species or system Ba/F3; CellTiter-Glo anti-proliferation of Ba/F3 cells transformed with ETV6-NTRK fusions; settings: Mus musculus, BaF3, 72 h; read-out: AZD4547 GI50
T5 construct: ETV6 (1-336)-NTRK1 kinase domain (434-790) fusion expressed in Ba/F3
Protocol: as §1

TRKB [2] = target: T6, TRKB (Homo sapiens, UniProt Q16620); experiment: radiometric biochemical kinase assay
T6 construct: gene NTRK2

TRKC = target: T7, TRKC (Homo sapiens, UniProt Q16288); experiment: radiometric biochemical kinase assay
T7 construct: gene NTRK3
T7 sequence (Q16288 32-839): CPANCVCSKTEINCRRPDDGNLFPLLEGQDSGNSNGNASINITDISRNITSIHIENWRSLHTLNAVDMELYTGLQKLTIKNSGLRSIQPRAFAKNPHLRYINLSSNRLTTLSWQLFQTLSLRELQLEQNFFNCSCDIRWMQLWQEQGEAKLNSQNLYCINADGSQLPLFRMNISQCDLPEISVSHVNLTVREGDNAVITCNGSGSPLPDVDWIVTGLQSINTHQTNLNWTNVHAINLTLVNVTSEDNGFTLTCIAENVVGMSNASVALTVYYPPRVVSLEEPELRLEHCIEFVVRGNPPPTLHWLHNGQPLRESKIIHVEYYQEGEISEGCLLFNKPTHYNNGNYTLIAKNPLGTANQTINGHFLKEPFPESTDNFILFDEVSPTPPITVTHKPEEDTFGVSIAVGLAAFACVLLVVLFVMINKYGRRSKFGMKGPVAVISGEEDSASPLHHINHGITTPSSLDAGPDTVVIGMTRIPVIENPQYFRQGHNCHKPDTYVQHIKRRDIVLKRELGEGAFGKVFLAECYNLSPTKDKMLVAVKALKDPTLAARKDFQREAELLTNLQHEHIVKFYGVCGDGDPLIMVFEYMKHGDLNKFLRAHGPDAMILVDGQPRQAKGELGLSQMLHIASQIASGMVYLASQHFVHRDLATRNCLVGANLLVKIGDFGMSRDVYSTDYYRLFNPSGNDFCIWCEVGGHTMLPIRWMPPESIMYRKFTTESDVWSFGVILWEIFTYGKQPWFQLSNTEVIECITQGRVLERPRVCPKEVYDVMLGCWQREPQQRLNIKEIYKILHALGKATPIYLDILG

T6 sequence (Q16620 32-822): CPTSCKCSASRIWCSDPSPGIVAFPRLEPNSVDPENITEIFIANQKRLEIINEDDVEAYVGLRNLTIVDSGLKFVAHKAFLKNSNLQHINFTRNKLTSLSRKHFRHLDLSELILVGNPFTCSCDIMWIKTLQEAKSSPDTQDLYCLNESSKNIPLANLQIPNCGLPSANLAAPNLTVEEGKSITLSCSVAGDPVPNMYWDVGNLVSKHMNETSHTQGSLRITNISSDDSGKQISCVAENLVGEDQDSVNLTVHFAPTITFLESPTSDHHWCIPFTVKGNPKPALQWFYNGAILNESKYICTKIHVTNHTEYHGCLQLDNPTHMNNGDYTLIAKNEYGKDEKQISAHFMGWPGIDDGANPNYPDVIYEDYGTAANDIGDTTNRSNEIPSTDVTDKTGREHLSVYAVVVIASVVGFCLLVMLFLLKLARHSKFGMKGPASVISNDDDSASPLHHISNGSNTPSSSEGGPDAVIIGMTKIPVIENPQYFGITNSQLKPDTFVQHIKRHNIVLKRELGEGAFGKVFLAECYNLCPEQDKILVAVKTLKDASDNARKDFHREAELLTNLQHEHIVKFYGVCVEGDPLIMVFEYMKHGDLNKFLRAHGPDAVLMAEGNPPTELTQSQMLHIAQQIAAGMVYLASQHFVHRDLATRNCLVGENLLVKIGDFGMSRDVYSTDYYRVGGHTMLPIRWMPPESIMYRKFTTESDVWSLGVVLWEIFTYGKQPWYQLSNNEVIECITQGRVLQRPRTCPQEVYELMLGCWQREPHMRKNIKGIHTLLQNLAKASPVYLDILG

With `COc1cc(CCc2cc(NC(=O)c3ccc(N4C[C@@H](C)N[C@@H](C)C4)cc3)n[nH]2)cc(OC)c1` [AZD4547] the GI50 (TRKA G667S) was greater than 2000 nM, the GI50 (TRKA G595R) was greater than 2000 nM and the GI50 (TRKA G667C) was greater than 2000 nM. It also gave a GI50 (TRKB [1]) of 104 ± 6.1 nM, a GI50 (TRKA) of 66 ± 11.5 nM and an IC50 (TRKB [2]) of 7.6 nM. It also gave an IC50 (TRKC) of 1 nM.
